# Experimental data taken from patent publication US8071651B2, “5-amino-4-hydroxy-7-(imidazo [1,2-A] pyridin-6-ylmethyl)-8-methyl-nonamide derivatives and related compounds as renin inhibitors for the treatment of hypertension” (Novartis AG, priority 2005, dated 2011).
# Target: T1, renin (Homo sapiens, UniProt P00797)
# T1 construct: This test measures the formation of angiotensin I in human plasma; from tissue; host or cells: human plasma
# T1 sequence (P00797 67-406): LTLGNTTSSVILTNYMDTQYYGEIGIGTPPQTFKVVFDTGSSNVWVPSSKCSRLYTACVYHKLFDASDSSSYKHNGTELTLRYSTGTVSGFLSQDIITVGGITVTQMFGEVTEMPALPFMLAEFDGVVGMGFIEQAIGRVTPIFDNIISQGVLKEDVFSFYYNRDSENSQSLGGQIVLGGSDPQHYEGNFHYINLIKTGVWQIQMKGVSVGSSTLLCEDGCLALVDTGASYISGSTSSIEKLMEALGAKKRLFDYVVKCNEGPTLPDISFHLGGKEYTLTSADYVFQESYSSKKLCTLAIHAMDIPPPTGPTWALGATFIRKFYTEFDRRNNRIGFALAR
# Test: in vitro test of Nussberger et al.: formation of angiotensin I in human plasma, determined by radio-immunoassay
# Type: biochemical
# Conditions: concentration of inhibitor which reduces the formation of angiotensin I in human plasma by 50%
# Method: The effect of renin inhibitors is detected inter alia experimentally by means of in vitro tests where the reduction in the formation of angiotensin I is measured in various systems (human plasma, purified human renin together with synthetic or natural renin substrate). The following in vitro test of Nussberger et al. (1987) J. Cardiovascular Pharmacol., Vol. 9, pp. 39-44, is used, inter alia. This test measures the formation of angiotensin I in human plasma. The amount of angiotensin I formed is determined in a subsequent radio-immunoassay. The effect of inhibitors on the formation of angiotensin I is tested in this system by adding various concentrations of these substances. The IC50 is defined as the concentration of the particular inhibitor which reduces the formation of angiotensin I by 50%. The compounds of the present invention show inhibitory effects in the in vitro systems at minimal concentrations of about 10^−6 to about 10^−10 mol/l.
row,SMILES,IC50 [nM]
1,COCCCCc1cc(CC(CC(N)C(O)CC(C(=O)NCC2CC23CCOCC3)C(C)C)C(C)C)cnc1OC (centres unmarked) [Example 36IIII],3.5
2,COCCCCc1cc(CC(CC(N)C(O)CC(C(=O)NCC2C3COCC23)C(C)C)C(C)C)cnc1OC (centres unmarked) [Example 36BBBB],4.8

# Further compounds by falling IC50, results first:
row,IC50 [nM],SMILES
1,3.1,COCCCCc1cc(CC(CC(N)C(O)CC(C(=O)NC2C3COCC32)C(C)C)C(C)C)cnc1OC (centres unmarked) [Example 36DDDD]
2,2.9,COCCCCc1cc(CC(CC(N)C(O)CC(C(=O)NCC2CC23CCOCC3)C(C)C)C(C)C)cnc1OC (centres unmarked) [Example 36HHHH]
3,2.6,COCCCCc1cc(CC(CC(N)C(O)CC(C(=O)NCC2CCOCC2)C(C)C)C(C)C)cc(C)n1 (centres unmarked) [Example 32JJJ]
